15 compounds from ChEMBL document CHEMBL1129712, “Synthesis and biological activities of camphor-based non-peptide growth hormone secretagogues” (Bioorg Med Chem Lett, 1996) can be followed below.

Some results are limits rather than exact numbers.

For this assay, the species on record is Rattus norvegicus. Briefly: Evaluated for intrinsic GH secretory potency as half maximal release of GH in the rat pituitary cell assay. It counts as functional. Particulars: Pituitary gland cell.

By EC50 is commonly meant the concentration that produces a half-maximal response. A high value points to lower potency in that assay. As to `CC1(C)C2CCC1(CS(=O)(=O)N1CCC3(CCc4ccccc43)CC1)C(NC(=O)C1CCNCC1)C2` (stereo not given), the response was half-maximal at 9500 nM (EC50).

Consider `CC1(C)C2CCC1(CS(=O)(=O)N1CCC3(CCc4ccccc43)CC1)C(NC(=O)C1CCCN(CCO)C1)C2` (stereo not given), for which the EC50 is 300 nM.

As to `Cc1ccccc1N1CCN(S(=O)(=O)CC23CCC(CC2NC(=O)CC(C)(C)N)C3(C)C)CC1` (stereo not given), the concentration for a half-maximal effect (EC50) was over 10000 nM.

The compound `Cc1ccccc1N1CCN(S(=O)(=O)CC23CCC(CC2NC(=O)[C@@H]2CCCNC2)C3(C)C)CC1` (stereo not given in full) gave an EC50 of 135 nM.

Regarding `CC1(C)C2CCC1(CS(=O)(=O)N1CCC3(CCc4ccccc43)CC1)C(NC(=O)[C@H]1CCCNC1)C2` (stereo not given in full), the concentration for a half-maximal effect (EC50) was over 1000 nM.

In turn, `C[C@@H](O)CN1CCC[C@@H](C(=O)NC2CC3CCC2(CS(=O)(=O)N2CCC4(CCc5ccccc54)CC2)C3(C)C)C1` (stereo not given in full) gave a concentration giving a half-maximal response (EC50) of 90 nM.

`Cc1ccccc1N1CCN(S(=O)(=O)CC23CCC(CC2NC(=O)[C@H]2CCCNC2)C3(C)C)CC1` (stereo not given in full) showed an EC50 of over 5000 nM.

As to `CC1(C)C2CCC1(CS(=O)(=O)N1CCC3(CCc4ccccc43)CC1)C(NC(=O)[C@@H]1CCCN(C[C@H](O)CO)C1)C2` (stereo not given in full), the 50% effective concentration (EC50) worked out at 800 nM.

Take `CC(C)(N)CC(=O)NC1CC2CCC1(CS(=O)(=O)N1CCC3(CCc4ccccc43)CC1)C2(C)C` (stereo not given): the EC50 is over 10000 nM.

`CC1(C)C2CCC1(CS(=O)(=O)N1CCC3(CCc4ccccc43)CC1)C(NC(=O)C1CCCCN1)C2` (stereo not given) returned a concentration for a half-maximal effect (EC50) of over 10000 nM.

`CC1(C)C2CCC1(CS(=O)(=O)N1CCC3(CCc4ccccc43)CC1)C(NC(=O)C1CN3CCC1CC3)C2` (stereo not given): the 50% effective concentration (EC50) is over 10000 nM.

In the case of `CC(C)(N)C(=O)NC1CC2CCC1(CS(=O)(=O)N1CCC3(CCc4ccccc43)CC1)C2(C)C` (stereo not given), the EC50 was over 10000 nM.

On to `CC(C)(C)OC(=O)N1CCCC(C(=O)NC2CC3CCC2(CS(=O)(=O)N2CCC4(CCc5ccccc54)CC2)C3(C)C)C1` (stereo not given), for which the concentration giving a half-maximal response (EC50) is over 25000 nM.

For the compound `CC1(C)C2CCC1(CS(=O)(=O)N1CCC3(CCc4ccccc43)CC1)C(NC(=O)[C@@H]1CCCNC1)C2` (stereo partly drawn) [L-162425], the response was half-maximal at 140 nM (EC50).

In the case of `CC1(C)C2CCC1(CS(=O)(=O)N1CCC3(CCc4ccccc43)CC1)C(NC(=O)C1CCCNC1)C2` [L-368112], the midpoint of the response, the EC50, lay at 300 nM.
